Results on 3 compounds are retold here after patent US10377778B2, “Lead and thorium compounds” (Sciencons AS, priority 2017, dated 2019).

Data set [1] deals with C4-2 PSMA-positive xenografts. Briefly: Biodistribution of radiolabelled ligands (^224Ra/^212Pb solutions, ^177Lu) in nude mice with C4-2 xenografts. The procedure: Each group usually consisted of three mice. […] Approximately 16 kBq of ^224Ra/^212Pb was injected in each animal, i.e., approximately 0.2 nmol of ligand per mouse. Animals were given anaesthesia and sacrificed by cervical dislocation followed by dissection and harvesting of tissue-, blood- and urine samples. The samples were weighed and counted on a gamma counter.
Three mice in each group. […] The molar concentration was the same for both products, i.e., 12.5 nmol per MBq. Approximately 16 kBq of ^224Ra/^212Pb was injected in each animal, i.e., approximately 0.2 nmol of ligand per mouse. Animals were given anaesthesia and sacrificed by cervical dislocation followed by dissection and harvesting of tissue-, blood- and urine samples. The samples were weighed and counted on a gamma counter.
Methods: Tumor and kidney uptake of ^212Pb-labeled p-SCN-Bn-TCMC-PSMA ligand 1 and ^177Lu-labeled PSMA-617 was compared at 1 hours and 4 hours after administration of the products by intravenous injection into nude mice with C4-2 xenografts as described in Example 9.

The subject of data set [2] is C4-2 PSMA positive human prostate cells xenografts. Description: Comparative therapy experiment in nude mice with C4-2 xenografts. Type of data set: in vivo. The conditions noted are these: 52 MBq ^177Lu-PSMA-617 or 320 kBq ^212Pb-ligand 1. The procedure: Male nude mice were inoculated in the flanks with C4-2 PSMA positive human prostate cells and 2 weeks later when tumors were 5-7 mm in diameters. Groups of 8 animals each received saline, 52 MBq of ^177Lu-PSMA-617 or 320 kBq of ^212Pb-p-SCN-Bn-TCMC-PSMA ligand 1. Animals were sacrificed when tumor size reached 20 mm due to animal welfare requirements. […] For ^212Pb the effective half-life was assumed to be 10.6 h, 10% of injected dose per gram decays in tumor and 100% of radiation in a tumor is absorbed in the tumor, 100% retention of ^212Pb and daughters in the tumors and 8 MeV radiation energy per decay. The tumor dosimetry for the injected activities gave on average 35.9 Gy to tumors for ^177Lu-PSMA-617 and 2.06 Gy to tumors for ^212Pb-p-SCN-Bn-TCMC-PSMA ligand 1 groups respectively.

The next data set relates to PC3 PIP model. As to conditions: mouse xenografts, model used by other researchers; cited from earlier work.
Data set [3] in a line: Stability testing of ^212Pb-labeled ligands in vitro (TLC radiochemical purity in PBS and FBS). Type of data set: physicochemical. The conditions noted are these: 37° C. The method, then:
Thin layer chromatography (TLC) was performed using chromatography strips (model #150-772, Biodex Medical Systems Inc, Shirley, N.Y., USA). A formulation buffer (FB) consisting of 7.5% human serum albumin and 5 mM EDTA in DPBS and adjusted to approximately pH 7 with NaOH was mixed with the antibody conjugates in ratio 2:1 for at least 5 minutes before application to the strips to determine free radionuclide. A small beaker with about 0.5 ml of 0.9% NaCl was used to place strips with a sample spot in. To the strip was typically added 1-4 μl of sample at approximately 10% above the bottom of the strip. After the solvent front had moved to about 20% from the top of the strip, the strip was cut in half and each half was placed in a 5 ml test tube for counting. In this system radiolabeled ligand stays at the bottom half while radionuclide complexed with EDTA migrates to the upper half. It was verified that free cations of both ^212Pb and ^177Lu would complex with EDTA and moved to the top.
TLC analyses were performed at 1 h, 4 h, 24 h and 48 h of incubation. […]

For a further data set, the system named is C4-2 cells. Briefly: Prostate cancer cell binding of ^212Pb-labeled ligands. Details: species or system human. As to conditions: labeled with ^212Pb. The method, then: The cell binding fractions measured by adding about 1 ng of radioligand to 0.2 ml of C4-2 cells (5×10^7 cells per ml) in a 5 ml test tube and incubate for 1 h before measuring applied activity, wash cells 3 times with 0.5 ml 0.5% bovine serum albumin in DPBS and thereafter recount the washed cell pellet. […] Nonspecific binding was measured by blocking the cells with excess 10 μg/ml of unlabelled ligand before adding radioligand.

Regarding `O=C([O-])CN1CCN(CC(=O)[O-])CCN(CC(=O)NCC2CCC(C(=O)N[C@@H](Cc3ccc4ccccc4c3)C(=O)NCCCC[C@H](NC(=O)N[C@@H](CCC(=O)O)C(=O)O)C(=O)O)CC2)CCN(CC(=O)[O-])CC1.[177Lu+3]` (some centres unmarked) [^177Lu-PSMA-617, reference compound], the Average tumor-to-kidney ratio in data set [1] (1-hour point after administration) is 0.17. Besides, the Tumor-to-kidney ratio in data set [1] (4-hour timepoint) was found to be 0.8. For the same compound, in data set [1] (4 hours after i.v. injection), the “Kidney uptake (average)” value came out at 17.4 % ID/g and the “Tumor uptake (average)” value is reported as 13.6 % ID/g. The “Typical PSMA-ligand uptake of the xenograft model used” value in data set [1] (mouse xenografts, tumor model with intermediary level of uptake) is given as 10-15 % ID/g. In addition, in data set [2] (groups of 8, saline group 0%), the “Survival at day 30 after treatment” value is recorded as 12.5%. Also, in data set [2] (saline group 15 days), the Median survival is recorded as 20 days. Moreover, in the data set on PC3 PIP model, the “Typical uptake in PC3 PIP model” value is listed as 30-40 % ID/g.

For `O=C(O)CCC(NC(=O)NC(CCCCNC(=O)C(Cc1ccc2ccccc2c1)NC(=O)C1CCC(CNC(=O)CN2CCN(CC(=O)O)CCN(CC(=O)O)CCN(CC(=O)O)CC2)CC1)C(=O)O)C(=O)O.[212Pb+2]` (centres unmarked) [^212Pb-PSMA-617, reference compound], the Radiochemical purity in data set [3] (FBS, 1 h since start of incubation, in ^224Ra/^212Pb solution) is on record as 92.13%; in data set [3] (FBS, 4 h), 94.37%; in data set [3] (FBS, 24 h) it was 94.54%; in data set [3] (FBS, 48 h), 95.65%; in data set [3] (PBS, 1 h since start of incubation, in ^224Ra/^212Pb solution), 91.62%; in data set [3] (PBS, 4 h), 94.33%. In addition, the Radiochemical purity in data set [3] (PBS, 24 h) stood at 93.26%; in data set [3] (PBS, 48 h), 93.17%.

Consider `NC(=O)CN1CCN(CC(N)=O)CCN(CC(N)=O)C(Cc2ccc(NC(=S)NC[C@H]3CC[C@H](C(=O)N[C@@H](Cc4ccc5ccccc5c4)C(=O)NCCCC[C@H](NC(=O)N[C@@H](CCC(=O)O)C(=O)O)C(=O)O)CC3)cc2)CN(CC(N)=O)CC1` (stereo partly drawn) [p-SCN-Bn-TCMC-PSMA ligand 1, (((1S)-1-carboxy-5-((2S)-3-(naphthalen-2-yl)-2-((1r,4S)-4-((3-(4-((1,4,7,10-tetrakis(2-amino-2-oxoethyl)-1,4,7,10-tetraazacyclododecan-2-yl)methyl)phenyl)thioureido)methyl)cyclohexane-1-carboxamido)propanamido)pentyl)carbamoyl)-L-glutamic acid; trifloroacetic acid (1:4)], for which the “Difference in cell-binding versus radiolabelled PSMA-617” value in the data set on C4-2 cells was “No significant difference”.
